# Test results from patent US4535081A, “Antiallergic and antiulcer 1-oxo-1H-thiazolo[3,2-a]pyrimidine-2-carboxamides and intermediates therefor” (Pfizer Inc., priority 1983, dated 1985).
# Entries after “also recorded” stand apart in the source; their conditions may differ. Counter-ions that a name gives are not always drawn. Like-named read-outs stand apart in the source and are kept apart here.
# Assays:
# [1] = tested on: IgG (hyperimmune antiserum) PCA reaction; assay: Oral activity in PCA test, IgG; type: in vivo; conditions: Rattus norvegicus
# Method: (§1) The antiallergy property of the compounds of this invention is evaluated by the passive cutaneous anaphylaxis (PCA) test (Ovary, J. Immun., 81, 355, 1958). In the PCA test, normal animals are injected intradermally (i.d.) with antibodies contained in serum obtained from actively sensitized animals. The animals are then challenged intravenously with antigen mixed with a dye such as Evans' Blue. The increased capillary permeability caused by the antigen-antibody reaction causes the dye to leak from the site of the antibody injection. The test animals are then asphyxiated and the intensity of the reaction determined by measuring the diameter and intensity of the blue coloration on the inner surface of the animals' skin.
# (§2) The ability of agents to interfere with PCA reactions is measured in male Charles River Wistar rats, 170-210 g. Reaginic antiserum, rich in IgE antibodies, is prepared according to Petillo et al., Int. Arch. Allergy, 44, 309 (1973). Hyperimmune antiserum rich in IgG antibodies to hen egg albumin is prepared according to Orange et al., J. Exptl. Med., 127, 767 (1968). Forty-eight hours prior to antigen challenge, the reaginic antiserum is injected intradermally (i.d.) into the shaved skin of a normal rat's back; 5 hours before challenge the hyperimmune antisera is similarly injected. At a third site 60 mcg. histamine dihydrochloride and 0.5 mcg. serotonin creatinine sulfate are injected i.d. just prior to antigen challenge as a check for antihistaminic, antiserotonin and unspecific types of blockage; the compounds of the instant invention or saline are then administered i.v. and immediately followed by the challenge of 5 mg. egg albumen and 2.5 mg. Evans' Blue dye in saline. In the case of oral administration Evans' Blue dye and egg albumin are given 5 minutes after administration of the drug. Thirty minutes later the animals are asphyxiated using chloroform and the skin of the back removed and reversed for observation. A score is assigned each injection site equal to the product of the diameter of the site in mm. and a grade of 0.1, 0.5, 1, 2, 3 or 4 proportional to intensity of dye coloration. The scores for a given injection site are summed for each group of five animals and compared to the saline treated controls. The difference is expressed as percent blockage due to the compound employed.
# Compounds representative of those of the present invention are tested for antiallergy activity by the above-described procedure and the resulting activities are reported as the degree (%) of protection.
# ethanol-induced ulcer = assay: Ethanol-induced rat ulcer assay; type: in vivo; conditions: oral, 5 mg./kg.; for % Inhibition in the Ethanol-Induced Rat Ulcer Assay, amides: Table III; for % Inhibition in the Ethanol-Induced Rat Ulcer Assay, acids: Table IV
# Method: Alternatively, the effectiveness of the products of this invention as antiulcer agents is determined in an ethanol-induced rat ulcer assay. In this test, overnight fasted male rats are given drug (5 mg./kg.) or water orally fifteen minutes prior to an orally administered dose of absolute ethanol (1.0 ml.). One hour after the ethanol challenge the animals (8/group) are killed and the stomachs examined for the presence of lesions. All drugs were dissolved in dilute NaOH. After sacrifice the abdomen is opened and a locking hemostat placed at the pylorus. 6 ml. of a 4% solution of formaldehyde was injected into the stomach with a gastric feeding tube and a second locking hemostat was used to seal the esophagus. The stomach was removed, opened along the greater curvature and examined for ulceration.
# The scoring system used to quantitate the ethanol-induced lesions is given below.
# For each group of animals an ulcer index is calculated as follows:
# Ulceration Index=(the sum of the scores of the group)×(the sum of the number of ulcers in the group)×(the fraction of the group having any incidence of ulceration).
# The percentage inhibition of ulcers is calculated as follows:
# % Inhibition=100×[(ulcer index controls)-(ulcer index drug-treated)].div.(ulcer index controls).
# [2] = tested on: IgE (reaginic antiserum) PCA reaction; assay: Oral activity in PCA test, IgE; type: in vivo, rat; conditions: Rattus norvegicus, IgE, oral
# Method: as §1
# The PCA test is a measure of the anti-allergic (especially anti-asthmatic) activity of a compound. Compounds which inhibit a positive PCA test induced by the rat immunochemical counterpart of human immunoglobulin E (IgE), or reagin, are considered to have anti-allergic activity (C. Mota, Ann. N.Y. Acad. Sci., 103, 264 1963). (Reagin is primarily immunoglobulin E [IgE] and is the principal immunoglobulin responsible for allergic asthma, anaphylaxis, hay fever, food sensitivities and certain manifestations of drug sensitivities, although recent evidence ascribes to the IgG class of antibodies a significant role in the mediation of allergic diseases). Such compounds when administered to a sensitized subject, human or animal, prior to the time when the subject comes into contact with antigens or substances to which it is allergic, will prevent the allergic reaction which would otherwise occur. They, therefore, provide a method for the prophylactic treatment of allergy or anaphylactic reactions of a reagin mediated nature.
# To put it another way, such compounds block the release of mediators resulting from the antigen-antibody (allergic) reaction as illustrated in the PCA test using rat homocytotropic antibody--a known correlate of human reaginic antibody. Inhibition of reaginic antigen-antibody reactions in rats, the test animal of the PCA test, is regarded as representative of inhibition of human reaginic antigen-antibody reactions which occur during allergic episodes.
# as §2, with “employed. […]” for “employed.”
# [3] = Oral absorption and plasma concentrations, rats; type: in vivo, rat; conditions: after oral administration of III
# Method: (§3) This is supported by the observations of plasma concentrations of 3 to 7 μg/ml one hour after oral administration of III, 50 to 300 mg/kg.
# [4] = Oral absorption and plasma concentrations, dogs; type: in vivo, dog; conditions: after oral administration of III
# Method: as §3
# [5] = Plasma levels after repeated daily dosing; type: in vivo; conditions: after the eighth daily dose of III
# Method: as §3
# bronchi = conditions: Cox et al., Adv. in Drug Res., 5, 115 (1970); cited from earlier work
# allergic reactions = conditions: cited from earlier work
# [6] = Water solubility and hygroscopicity; type: physicochemical
# [7] = read-out: Oral Activity (% of Protection) in the PCA Test, IgG
# [8] = read-out: Oral Activity (% of Protection) in the PCA Test, IgE
# [9] = Table I amides, read-out: Oral Activity (% of Protection) in the PCA Test, IgG
# [10] = Table I amides, read-out: Oral Activity (% of Protection) in the PCA Test, IgE
# [11] = Table II acids, read-out: Oral Activity (% of Protection) of Acids in the PCA Test, IgG
# [12] = Table II acids, read-out: Oral Activity (% of Protection) of Acids in the PCA Test, IgE
SMILES,"% Inhibition in the Ethanol-Induced Rat Ulcer Assay, amides (ethanol-induced ulcer)","inhibition in vivo at 30 mg/kg [1, 11]","% Inhibition in the Ethanol-Induced Rat Ulcer Assay, acids (ethanol-induced ulcer)","inhibition in vivo at 30 mg/kg [2, 12]",further results
"Cc1sc2ncc(C(=O)Nc3nnn[nH]3)c(=O)n2c1C [Formula I: R1=CH3, R2=CH3, N-(5-Tetrazolyl)-1-oxo-1H-6,7-dimethylthiazolo[3,2-a]pyrimidine-2-carboxamide]",96%,–,–,–,"inhibition in vivo at 3 mg/kg [1, 7]: 51%; inhibition in vivo at 3 mg/kg [2, 8]: 55%"
"O=C(Nc1nnn[nH]1)c1cnc2sc3c(n2c1=O)CCCCCC3 [Formula I: (CH2)6, N-(5-Tetrazolyl)-1-oxo-1H-cyclooctenothiazolo[3,2-a]pyrimidine-2-carboxamide]",45%,–,–,–,"inhibition in vivo at 30 mg/kg [1, 9]: 57%; inhibition in vivo at 30 mg/kg [2, 10]: 94%"
"Cc1csc2ncc(C(=O)O)c(=O)n12 [Formula II: R1=H, R2=CH3, 1-Oxo-1H-7-methylthiazolo[3,2-a]pyrimidine-2-carboxylic acid]",–,19%,27%,18%,–
"Cc1csc2ncc(C(=O)Nc3nnn[nH]3)c(=O)n12 [Formula I: R1=H, R2=CH3, N-(5-Tetrazolyl)-1-oxo-1H-7-methylthiazolo[3,2-a]pyrimidine-2-carboxamide]",59%,–,–,–,"inhibition in vivo at 3 mg/kg [1, 7]: 50%; inhibition in vivo at 3 mg/kg [2, 8]: 55%"
"Cc1cn2c(=O)c(C(=O)O)cnc2s1 [Formula II: R1=CH3, R2=H, 1-Oxo-1H-6-methylthiazolo[3,2-a]pyrimidine-2-carboxylic Acid]",–,14%,0%,12%,–
"O=C(O)c1cnc2sc3c(n2c1=O)CCCC3 [Formula II: (CH2)4, 1-Oxo-1H-cyclohexenothiazolo[3,2-a]pyrimidine-2-carboxylic Acid]",–,–,21%,–,"inhibition in vivo at 10 mg/kg ([1]; 10 mg./kg., Table II acids, read-out: Oral Activity (% of Protection) of Acids in the PCA Test, IgG): 39%; plasma levels of carboxylic acid metabolite [3]: comparable to those of III; plasma levels of carboxylic acid metabolite [4]: comparable to those of III; inhibition in vivo at 10 mg/kg ([2]; 10 mg./kg., Table II acids, read-out: Oral Activity (% of Protection) of Acids in the PCA Test, IgE): 55%; levels after the eighth daily dose relative to initial dose [5]: 2 to 4 times"
"Cc1cn2c(=O)c(C(=O)Nc3nnn[nH]3)cnc2s1 [Formula I: R1=CH3, R2=H, N-(5-Tetrazolyl)-1-oxo-1H-6-methylthiazolo[3,2-a]pyrimidine-2-carboxamide]",72%,–,–,–,"inhibition in vivo at 30 mg/kg [1, 9]: 55%; inhibition in vivo at 30 mg/kg [2, 10]: 78%"
"CCc1sc2ncc(C(=O)Nc3nnn[nH]3)c(=O)n2c1CC [Formula I: R1=C2H5, R2=C2H5, N-(5-Tetrazolyl)-1-oxo-1H-6,7-diethylthiazolo[3,2-a]pyrimidine-2-carboxamid]",10%,–,–,–,"inhibition in vivo at 30 mg/kg [1, 9]: 49%; inhibition in vivo at 30 mg/kg [2, 10]: 62%"
"CCc1cn2c(=O)c(C(=O)O)cnc2s1 [Formula II: R1=C2H5, R2=H, 1-Oxo-1H-6-ethylthiazolo[3,2-a]pyrimidine-2-carboxylic Acid]",–,38%,48%,45%,–
"CCc1cn2c(=O)c(C(=O)Nc3nnn[nH]3)cnc2s1 [Formula I: R1=C2H5, R2=H, N-(5-Tetrazolyl)-1-oxo-1H-6-ethylthiazolo[3,2-a]pyrimidine-2-carboxamide]",86%,–,–,–,"inhibition in vivo at 30 mg/kg [1, 9]: 58%; inhibition in vivo at 30 mg/kg [2, 10]: 85%"
"CCc1sc2ncc(C(=O)O)c(=O)n2c1CC [Formula II: R1=C2H5, R2=C2H5, 1-Oxo-1H-6,7-diethylthiazolo[3,2-a]pyrimidine-2-carboxylic Acid]",–,32%,48%,41%,–
"Cc1sc2ncc(C(=O)O)c(=O)n2c1C [Formula II: R1=CH3, R2=CH3, 1-Oxo-1H-6,7-dimethylthiazolo[3,2-a]pyrimidine-2-carboxylic Acid]",–,0%,11%,0%,–
"O=C(O)c1cc(=O)c2c(OCC(O)COc3cccc4oc(C(=O)O)cc(=O)c34)cccc2o1 [Intal, 1,3-bis(2-carboxycromon-5-yloxy)-2-hydroxypropane]",–,–,–,–,bronchodilator action (bronchi): not a bronchodilator; activity by the oral route (allergic reactions): lacks efficacy by the oral route; also recorded: not active by the oral route; activity by the oral route (allergic reactions; listed as disodium cromoglycate): lack of oral efficacy
"O=C(Nc1nnn[nH]1)c1cnc2sc3c(n2c1=O)CCCC3 [sodium salt (trihydrate), sodium N-(5-tetrazolyl)-1-oxo-1H-cyclohexenothiazolo[3,2-a]pyrimidine-2-carboxamide trihydrate]",–,–,–,–,hygroscopicity [6]: non-hygroscopic; water solubility [6]: good water solubility
